Test results from USRE47689E1, “Compounds for treating spinal muscular atrophy” (PTC Therapeutics, Inc., priority 2011, dated 2019).
Read-outs that look alike come from different tables or passages of the source.

Assays:
Smn protein = Smn protein assay in cultured cells (SMN HTRF); type: cell-based, human; conditions: 48 hours; for EC1.5x (concentration giving 1.5-fold Smn protein increase): SMA Type 1 patient fibroblast cells (GM03813), 7-point concentration curve, SMN HTRF, concentration producing 1.5 times Smn protein vs DMSO vehicle control, read-out: EC1.5x for Smn protein expression; for maximum fold (Fold) increase of Smn protein: SMA patient fibroblast cells, 7-point concentration data, fold increase relative to vehicle control (SMN HTRF)
Summary of the method: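 Lysates in RIPA with protease inhibitors are incubated overnight at room temperature with HTRF anti-SMN antibodies. EC1.5x is derived from fold increase in ΔF over vehicle.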

[1] = test system: SMN2 minigene (full length SMN2 minigene mRNA containing SMN2 exon 7); experiment: SMN2 minigene mRNA splicing RT-qPCR assay in cultured cells; type: cell-based, human; conditions: Homo sapiens, HEK293-H, read-out: EC1.5x for production of full length SMN2 mRNA
Summary of the method: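 Read-out: full-length (exon 7-included) SMN2 minigene mRNA by multiplex RT-qPCR with GAPDH, efficiency-corrected (1+E)^−Ct, GAPDH-normalized and divided by vehicle. Stably transfected HEK293H cells, 24 h compound exposure, duplicates per concentration. Value is EC1.5x, reported as star ranges.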

[2] = HEK293H cells stably transfected with SMN2-A minigene, 24 hours, 7-point concentration curve, 1.5-fold relative to vehicle-treated cells

SMILES	melting point	EC1.5x (concentration giving 1.5-fold Smn protein increase) (Smn protein)	maximum fold (Fold) increase of Smn protein (Smn protein)	EC (1.5-fold) [1, 2]	EC (1.5-fold) ([1]; 24 h)
O=c1oc2cc(N3CCNCC3)ccc2cc1-c1cn2cccc(Cl)c2n1 [Compound 83, 3-(8-chloroimidazo[1,2-a]pyridin-2-yl)-7-(piperazin-1-yl)-2H-chromen-2-one]	196 to 198 °C	1000 to 3000 nM	**** (fold increase between >1.5 and ≤1.65)	0.3 to 1 µM	
Cc1cn2cc(-c3cc4ccc(O[C@@H]5CCNC5)cc4oc3=O)nc2s1.Cl.Cl [Compound 325, 3-(2-methylimidazo[2,1-b][1,3]thiazol-6-yl)-7-[(3R)-pyrrolidin-3-yloxy]-2H-chromen-2-one hydrochloride (1:2)]	230 to 235 °C		* (maximum fold increase of ≤1.2)	0.3 to 1 µM	
Cc1ccn2cc(-c3cc4ccc(N5C[C@@H](C)N[C@@H](C)C5)cc4oc3=O)nc2n1 [Compound 225, 7-[(3R,5S)-3,5-dimethylpiperazin-1-yl]-3-(7-methylimidazo[1,2-a]pyrimidin-2-yl)-2H-chromen-2-one]	246 to 252 °C		*** (fold increase between >1.35 and ≤1.5)	0.3 to 1 µM	
CN1CCCN(c2cc(F)c3cc(-c4cn5ccsc5n4)c(=O)oc3c2)CC1 [Compound 373, 5-fluoro-3-(imidazo[2,1-b][1,3]thiazol-6-yl)-7-(4-methyl-1,4-diazepan-1-yl)-2H-chromen-2-one]	205 to 207 °C	300 to 1000 nM	**** (fold increase between >1.5 and ≤1.65)	< 0.1 µM	
CCCN1CCN(c2ccc3cc(-c4cn5cc(C)ccc5n4)c(=O)oc3c2)CC1 [Compound 207, 3-(6-methylimidazo[1,2-a]pyridin-2-yl)-7-(4-propylpiperazin-1-yl)-2H-chromen-2-one]	220 to 222 °C		** (fold increase between >1.2 and ≤1.35)	1 to 3 µM	
Cc1cccn2cc(-c3cc4c(F)cc(N5CCN(C)CC5)cc4oc3=O)nc12 [Compound 423, 5-fluoro-3-(8-methylimidazo[1,2-a]pyridin-2-yl)-7-(4-methylpiperazin-1-yl)-2H-chromen-2-one]	232 to 237 °C		* (maximum fold increase of ≤1.2)	1 to 3 µM	
O=c1oc2cc(N3CC4CCC(C3)N4)ccc2cc1-c1cn2cccc(F)c2n1 [Compound 506, 7-(3,8-diazabicyclo[3.2.1]oct-3-yl)-3-(8-fluoroimidazo[1,2-a]pyridin-2-yl)-2H-chromen-2-one]	232 to 235 °C		** (fold increase between >1.2 and ≤1.35)		0.1 to 0.3 µM
O=c1oc2cc(N3CCNCC3)ccc2cc1-c1cn2ccsc2n1 [Compound 88, 3-(imidazo[2,1-b][1,3]thiazol-6-yl)-7-(piperazin-1-yl)-2H-chromen-2-one]	275 to 280 °C	1000 to 3000 nM	*** (fold increase between >1.35 and ≤1.5)	< 0.1 µM	
COc1cccn2cc(-c3cc4ccc(N5CCNCC5)cc4oc3=O)nc12 [Compound 402, 3-(8-methoxyimidazo[1,2-a]pyridin-2-yl)-7-(piperazin-1-yl)-2H-chromen-2-one]	236 to 240 °C		* (maximum fold increase of ≤1.2)	3 to 30 µM	

More lines, main results first:

melting point	SMILES	EC1.5x (concentration giving 1.5-fold Smn protein increase) (Smn protein)	maximum fold (Fold) increase of Smn protein (Smn protein)	EC (1.5-fold) [1, 2]	EC (1.5-fold) ([1]; 24 h)
218 to 220 °C	O=c1oc2cc(N3CCNCC3)ccc2cc1-c1ccc2c(c1)OCO2 [Compound 486, 3-(1,3-benzodioxol-5-yl)-7-(piperazin-1-yl)-2H-chromen-2-one]		* (maximum fold increase of ≤1.2)	3 to 30 µM	
180 to 183 °C	CSc1cccc(-c2cc3ccc(N4CCNCC4)cc3oc2=O)n1 [Cpd 445, 3-[6-(methylsulfanyl)pyridin-2-yl]-7-(piperazin-1-yl)-2H-chromen-2-one]		* (maximum fold increase of ≤1.2)	3 to 30 µM	
266 to 272 °C	Cc1cn2cc(-c3cc4ccc(C5CCN(C)CC5)cc4oc3=O)nc2cn1 [Compound 841, 3-(6-methylimidazo[1,2-a]pyrazin-2-yl)-7-(1-methylpiperidin-4-yl)-2H-chromen-2-one]	< 300 nM	***** (fold increase >1.65)	< 0.1 µM	
205 to 209 °C	Cc1nn2cc(-c3cc4ccc(N5CCN[C@@H](C)C5)cc4oc3=O)nc2s1 [Compound 482, 3-(2-methylimidazo[2,1-b][1,3,4]thiadiazol-6-yl)-7-[(3S)-3-methylpiperazin-1-yl]-2H-chromen-2-one]	< 300 nM	**** (fold increase between >1.5 and ≤1.65)	< 0.1 µM	
260 to 262 °C	Cc1cn2cc(-c3cc4ccc(N5CCN(C6CCC6)CC5)cc4oc3=O)nc2c(C)n1 [Compound 822, 7-(4-cyclobutylpiperazin-1-yl)-3-(6,8-dimethylimidazo[1,2-a]pyrazin-2-yl)-2H-chromen-2-one]	< 300 nM	**** (fold increase between >1.5 and ≤1.65)	< 0.1 µM	
222 to 226 °C	Cc1cn2cc(-c3cc4ccc(C5CCN(CCO)CC5)cc4oc3=O)ccc2n1 [Compound 829, 7-[1-(2-hydroxyethyl)piperidin-4-yl]-3-(2-methylimidazo[1,2-a]pyridin-6-yl)-2H-chromen-2-one]	< 300 nM	***** (fold increase >1.65)	< 0.1 µM	
220 to 230 °C	Cc1nccn2cc(-c3cc4ccc(O[C@@H]5CCNC5)cc4oc3=O)nc12 [Compound 610, 3-(8-methylimidazo[1,2-a]pyrazin-2-yl)-7-[(3R)-pyrrolidin-3-yloxy]-2H-chromen-2-one]		** (fold increase between >1.2 and ≤1.35)	0.3 to 1 µM	
236 to 242 °C	Cc1cc(F)c2nc(-c3cc4ccc(N5CCNC6(CCCC6)C5)cc4oc3=O)cn2c1 [Compound 599, 7-(6,9-diazaspiro[4.5]dec-9-yl)-3-(8-fluoro-6-methylimidazo[1,2-a]pyridin-2-yl)-2H-chromen-2-one]		*** (fold increase between >1.35 and ≤1.5)	0.1 to 0.3 µM	
170 to 172 °C	CC(=O)O.CC[C@H]1CN(c2ccc3cc(-c4cn5cc(C)nc(C)c5n4)c(=O)oc3c2)CCN1C [Compound 778, 3-(6,8-dimethylimidazo [1,2-a]pyrazin-2-yl)-7-[(3S)-3-ethyl-4-methylpiperazin-1-yl]-2H-chromen-2-one acetate]	< 300 nM	***** (fold increase >1.65)	< 0.1 µM	
